The results in this text go back to patent publication US9221756B2, “Pyrrole derivatives” (priority 2011, dated 2015).

SMILES strings stand for the structures.

The target in one assay is pneumolysin (Streptococcus pneumoniae serotype 2, UniProt Q04IN8). The assay is described as follows: Inhibition of the haemolytic activity of pneumolysin (sheep erythrocytes). It is filed as cell-based. The following applies: IC50, inhibition of pneumolysin-induced haemolysis of sheep erythrocytes; class symbols of Table 1.
Chain of pneumolysin (Q04IN8 whole entry): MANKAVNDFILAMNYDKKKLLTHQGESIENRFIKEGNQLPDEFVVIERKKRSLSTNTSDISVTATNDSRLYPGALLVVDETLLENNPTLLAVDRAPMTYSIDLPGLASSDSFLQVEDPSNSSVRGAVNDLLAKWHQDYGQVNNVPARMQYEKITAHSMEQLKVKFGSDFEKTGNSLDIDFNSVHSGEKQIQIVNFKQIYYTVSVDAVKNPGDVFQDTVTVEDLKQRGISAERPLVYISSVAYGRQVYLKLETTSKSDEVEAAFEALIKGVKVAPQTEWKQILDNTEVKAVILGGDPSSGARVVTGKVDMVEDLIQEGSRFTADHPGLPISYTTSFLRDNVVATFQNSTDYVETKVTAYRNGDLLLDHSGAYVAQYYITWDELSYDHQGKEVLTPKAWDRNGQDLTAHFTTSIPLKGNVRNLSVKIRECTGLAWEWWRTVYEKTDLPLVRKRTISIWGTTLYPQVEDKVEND
As a reminder, the IC50 is the concentration needed to halve the response being measured. Low readings indicate higher potency, high ones lower potency. In turn, `CCN(CC)C(=O)c1c(O)c(O)c(C(=O)N(CC)CC)n1-c1ccc(F)cc1` [UL1-001, N^2,N^2,N^5,N^5-tetraethyl-1-(4-fluorophenyl)-3,4-dihydroxy-1H-pyrrole-2,5-dicarboxamide] returned an IC50 of under 10 µM.

In turn, `CCOc1ccc(-n2c(C(=O)N(CC)CC)c(O)c(O)c2C(=O)N(CC)CC)cc1` [UL1-002, 1-(4-ethoxyphenyl)-N^2,N^2,N^5,N^5-tetraethyl-3,4-dihydroxy-1H-pyrrole-2,5-dicarboxamide] returned an IC50 of under 10 µM.

On to `CCN(CC)C(=O)c1c(O)c(O)c(C(=O)N(CC)CC)n1-c1ccc(OC)cc1` [UL1-003, N^2,N^2,N^5,N^5-tetraethyl-3,4-dihydroxy-1-(4-methoxyphenyl)-1H-pyrrole-2,5-dicarboxamide], for which the IC50 is under 10 µM.

Consider `COc1ccc(-n2c(C(=O)N3CCOCC3)c(O)c(O)c2C(=O)N2CCOCC2)cc1` [UL1-004, (3,4-dihydroxy-1-(4-methoxyphenyl)-1H-pyrrole-2,5-diyl)bis(morpholinomethanone)], for which the IC50 is under 10 µM.

Compound `COc1ccc(-n2c(C(=O)N(C)C)c(O)c(O)c2C(=O)N(C)C)cc1` [UL1-005, 3,4-dihydroxy-1-(4-methoxyphenyl)-N^2,N^2,N^5,N^5-tetramethyl-1H-pyrrole-2,5-dicarboxamide] had an IC50 of under 10 µM.

`O=C(c1c(O)c(O)c(C(=O)N2CCOCC2)n1-c1ccc(F)cc1)N1CCOCC1` [UL1-006, (1-(4-fluorophenyl)-3,4-dihydroxy-1H-pyrrole-2,5-diyl)bis(morpholinomethanone)] had an IC50 of under 10 µM.

Compound `CN(C(=O)c1c(O)c(O)c(C(=O)N(C)c2ccccc2)n1-c1ccc(F)cc1)c1ccccc1` [UL1-007, 1-(4-fluorophenyl)-3,4-dihydroxy-N^2,N^5-dimethyl-N^2,N^5-diphenyl-1H-pyrrole-2,5-dicarboxamide] showed an IC50 of 20 to 60 µM.

Turning to `CC(C)(C)OC(=O)N1CCN(C(=O)c2c(O)c(O)c(C(=O)N3CCN(C(=O)OC(C)(C)C)CC3)n2-c2ccc(F)cc2)CC1` [UL1-009, di-tert-butyl 4,4′-(1-(4-fluorophenyl)-3,4-dihydroxy-1H-pyrrole-2,5-dicarbonyl)bis(piperazine-1-carboxylate)], the IC50 was under 10 µM.

As to `CC(=O)N1CCN(C(=O)c2c(O)c(O)c(C(=O)N3CCN(C(C)=O)CC3)n2-c2ccc(F)cc2)CC1` [UL1-010, 1,1′-(4,4′-(1-(4-fluorophenyl)-3,4-dihydroxy-1H-pyrrole-2,5-dicarbonyl)bis(piperazine-4,1-diyl))diethanone], the 50% inhibitory concentration (IC50) was under 10 µM.

For `O=C(c1c(O)c(O)c(C(=O)N2CCCCC2)n1-c1ccc(F)cc1)N1CCCCC1` [UL1-011, (1-(4-fluorophenyl)-3,4-dihydroxy-1H-pyrrole-2,5-diyl)bis(piperidin-1-ylmethanone)], the IC50 was under 10 µM.

`CC(C)N(C)C(=O)c1c(O)c(O)c(C(=O)N(C)C(C)C)n1-c1ccc(F)cc1` [UL1-013, 1-(4-fluorophenyl)-3,4-dihydroxy-N^2,N^5-diisopropyl-N^2,N^5-dimethyl-1H-pyrrole-2,5-dicarboxamide] showed a 50% inhibitory concentration (IC50) of under 10 µM.

As to `CN(Cc1ccccc1)C(=O)c1c(O)c(O)c(C(=O)N(C)Cc2ccccc2)n1-c1ccc(F)cc1` [UL1-014, N^2,N^5-dibenzyl-1-(4-fluorophenyl)-3,4-dihydroxy-N^2,N^5-dimethyl-1H-pyrrole-2,5-dicarboxamide], the IC50 was under 10 µM.

Consider `COc1ccc(-n2c(C(=O)N3CCN(C(=O)OC(C)(C)C)CC3)c(O)c(O)c2C(=O)N2CCN(C(=O)OC(C)(C)C)CC2)cc1` [UL1-015, di-tert-butyl 4,4′-(3,4-dihydroxy-1-(4-methoxyphenyl)-1H-pyrrole-2,5-dicarbonyl)bis(piperazine-1-carboxylate)], for which the IC50 is under 10 µM.

As for `COc1ccc(-n2c(C(=O)N3CCNCC3)c(O)c(O)c2C(=O)N2CCNCC2)cc1` [UL1-016, (3,4-dihydroxy-1-(4-methoxyphenyl)-1H-pyrrole-2,5-diyl)bis(piperazin-1-ylmethanone)], the IC50 was under 10 µM.

Staying with this assay, now noted: IC50, inhibition of pneumolysin-induced haemolysis of sheep erythrocytes; specific values.
`COc1ccc(-n2c(C(=O)N3CCOCC3)c(O)c(O)c2C(=O)N2CCOCC2)cc1` [UL1-004, (3,4-dihydroxy-1-(4-methoxyphenyl)-1H-pyrrole-2,5-diyl)bis(morpholinomethanone)] came in with an IC50 of 0.17 µM.

In the case of `COc1ccc(-n2c(C(=O)N(C)C)c(O)c(O)c2C(=O)N(C)C)cc1` [UL1-005, 3,4-dihydroxy-1-(4-methoxyphenyl)-N^2,N^2,N^5,N^5-tetramethyl-1H-pyrrole-2,5-dicarboxamide], half-maximal inhibition (IC50) required 0.15 µM.
